In US20090209571A1, “Phenanthrene derivatives as MPGES-1 inhibitors” (priority 2006, published 2009):

Target: T1, human mPGES-1 (Homo sapiens, UniProt O14684)
T1 construct: expressed in transfected cells; host or cells: CHO-K1 cells, transiently transfected; microsomal fraction used
T1 sequence (O14684 1-152): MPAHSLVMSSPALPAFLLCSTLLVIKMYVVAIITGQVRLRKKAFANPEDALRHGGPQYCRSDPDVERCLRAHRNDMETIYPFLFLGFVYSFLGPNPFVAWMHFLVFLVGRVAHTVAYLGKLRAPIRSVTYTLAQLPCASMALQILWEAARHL
Test: Microsomal Prostaglandin E Synthase Assay
Assay type: biochemical
Settings: microsomal fractions from CHO-K1 cells transiently transfected with human mPGES-1 cDNA; 1 μM PGH2; PGE2 by EIA; average of at least n=3; read-out: h-CHO (nM), potency expressed as IC50
Experimental: Compounds are tested as inhibitors of prostaglandin E synthase activity in microsomal prostaglandin e synthases, whole cell and in vivo assays. These assays measure prostaglandin E2 (PGE2) synthesis using either Enzymatic Immunoassay (EIA) or mass spectrometry. Cells used for microsomal preparation are CHO-K1 cells transiently transfected with plasmids encoding the human mPGES-1 cDNA. Cells used for cell-based experiments are human A549 (which express human mPGES-1). Guinea pigs are used to test the activity of selected compounds in vivo. In all these assays, 100% activity is defined as the PGE2 production in vehicle-treated samples. IC50 and ED50 represent the concentration or dose of inhibitor required to inhibit PGE2 synthesis by 50% as compared to the uninhibited control.
Prostaglandin E synthase microsomal fractions are prepared from CHO-K1 cells transiently transfected with plasmid encoding the human mPGES-1 cDNA. Microsomes are then prepared and the PGES assay begins with the incubation of 5 μg/ml microsomal PGES-1 with compound or DMSO (final 1%) for 20-30 minutes at room temperature. The enzyme reactions are performed in 200 mM KPi pH 7.0, 2 mM EDTA and 2.5 mM GSH-reduced form. The enzymatic reaction is then initiated by the addition of 1 μM final PGH2 substrate prepared in isopropanol (3.5% final in assay well) and incubated at room temperature for 30 seconds. The reaction is terminated by the addition of SnCl2 in 1N HCl (1 mg/ml final). Measurement of PGE2 production in the enzyme reaction aliquots is done by EIA using a standard commercially available kit (Cat #: 901-001 from Assay Designs).
The potency is expressed as IC50 and the value indicated is an average of at least n=3.

Row | IC50 [nM] | SMILES
1 | 10.5 | Fc1cccc(Cl)c1-c1nc2c3ccccc3c3sc(Cl)cc3c2[nH]1 [Example 2]
2 | 3.2 | N#Cc1cccc(C#N)c1-c1nc2c3ccc(Cl)cc3c3ccoc3c2[nH]1 [Example 12]
3 | 1.8 | Fc1cccc(Cl)c1-c1nc2c3ccc(Cl)cc3c3cc(Br)sc3c2[nH]1 [Example 15]
4 | 1.5 | CC(C)(O)C#Cc1ccc2c(c1)c1c(Cl)c(Cl)sc1c1[nH]c(-c3c(C#N)cccc3C#N)nc21 [Example 28]
